# Experimental data as given in PubChem BioAssay (NCI).
#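 Following 48 hours of exposure in 96-well plates, responses at five concentrations were used to interpolate endpoints linearly. GI50: concentration for 50% inhibition of growth. TGI: concentration producing complete growth inhibition.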
# Legend:
# Assay in all cases: growth of human tumour cells (NCI), 48 h
# 786-0 renal = system: 786-0 renal
# HCC-2998 colon = system: HCC-2998 colon
# HCT-116 colon = system: HCT-116 colon
# HL-60(TB) leukemia = system: HL-60(TB) leukemia
# HOP-62 NSCLC = system: HOP-62 NSCLC
# LOX IMVI melanoma = system: LOX IMVI melanoma
# SK-MEL-5 melanoma = system: SK-MEL-5 melanoma
# SNB-75 CNS = system: SNB-75 CNS
# T-47D breast = system: T-47D breast
# MALME-3M melanoma = system: MALME-3M melanoma
Structure (SMILES),TGI (786-0 renal) [µM],TGI (HCC-2998 colon) [µM],TGI (HCT-116 colon) [µM],TGI (HL-60(TB) leukemia) [µM],TGI (HOP-62 NSCLC) [µM],TGI (LOX IMVI melanoma) [µM],TGI (SK-MEL-5 melanoma) [µM],TGI (SNB-75 CNS) [µM],TGI (T-47D breast) [µM],TGI (MALME-3M melanoma) [µM],GI50 (HCC-2998 colon) [µM],GI50 (HCT-116 colon) [µM],GI50 (HL-60(TB) leukemia) [µM],GI50 (HOP-62 NSCLC) [µM],GI50 (LOX IMVI melanoma) [µM],GI50 (MALME-3M melanoma) [µM],GI50 (SK-MEL-5 melanoma) [µM],GI50 (SNB-75 CNS) [µM]
c1ncn(C23C4C5C6C4C2C6C53)n1 (stereo not drawn),> 100,> 100,> 100,> 100,> 100,> 100,> 100,> 100,> 100,,,,,,,,,
O=S1(=O)c2ccccc2Oc2ccc(C(/C=N/O)=N/O)cc21,> 100,,> 100,47.3,> 100,41.5,,> 100,35.6,25.7,,,,,,,,
S=C1c2ccc(Cl)cc2-n2cnnc2C2CSCN12 (stereo not drawn),> 100,> 100,> 100,,> 100,> 100,> 100,> 100,> 100,> 100,,,,,,,,
O=C1c2cccc([N+](=O)[O-])c2C(=O)N1Cc1ccccc1,> 100,> 100,> 100,> 100,> 100,> 100,> 100,> 100,> 100,,,,,,,,,
COc1cc2c(c(O)c1O)C(=O)C1CCC(=O)N1C2c1cccc2ccccc12 (stereo not drawn),> 50,,> 50,> 50,> 50,,,> 50,> 50,,,,,,,,,
COc1ccc2c(c1)C(=O)CC1c3cnccc3C(=O)N21 (stereo not drawn),> 100,> 100,> 100,,> 100,> 100,> 100,> 100,> 100,> 100,,,,,,,,
Cc1cc([NH-])c([NH-])cc1C.[Cl][Pt+2][Cl],,99.1,32.9,75.4,> 77,17.6,25.3,> 100,,36.6,> 44.8,14.2,17,> 42.8,7.9,18,9.48,39.2
CC(=O)Nc1ccc2c(C)c3c(nc2n1)[nH]c1ccccc13,> 100,76.1,58.4,,> 100,37.9,28,69.2,55.5,,,,,,,,,
CCCCCOc1ccc(C=Nc2ccc(CCc3ccc(N=Cc4ccc(OCCCCC)cc4)cc3)cc2)cc1,,> 100,> 100,> 100,> 100,> 100,> 100,> 100,,> 100,,,,,,,,
CSc1ncc2c(n1)C(C#N)C1Sc3ccccc3N1C2=O (stereo not drawn),> 100,,> 100,,> 100,> 100,> 100,66.3,> 100,> 100,,,,,,,,
C#CCNC(CSSCC(N)C(=O)O)C(=O)O (stereo not drawn),> 100,> 100,> 100,,> 100,,> 100,> 100,> 100,> 100,,,,,,,,
